Assay results reported in patent US12077537B2 (Gilead Sciences, Inc., priority 2020, dated 2024).

System: HIV-IIIb
Assay: Antiviral assay in MT4 cells
Type: cell-based
Conditions: Human immunodeficiency virus 1, MT4, 120 h; MT-4 cells mixed with HIV-IIIb at m.o.i. 0.003; 5 days at 37° C.; CellTiter-Glo luminescence; 50% decrease in signal, a measure of HIV-1 replication
Method in brief: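 MT-4 cells were infected with HIV-IIIb at m.o.i. 0.003 for 1 hour, then added to 3-fold serially diluted compound (10 concentrations, quadruplicate) in medium with 10% FBS. After 5 days at 37° C, cell viability was read by CellTiter-Glo chemiluminescence.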

**Q.** With Cn1nc(NS(C)(=O)=O)c2c(Cl)ccc(-c3cc4[nH]c(=O)[nH]c4nc3[C@H](Cc3cc(F)cc(F)c3)NC(=O)Cn3nc(C(F)F)c4c3C(F)(F)[C@@H]3C[C@H]43)c21 [Example 109, N—((S)-1-(6-(4-chloro-1-methyl-3-(methylsulfonamido)-1H-indazol-7-yl)-2-oxo-2,3-dihydro-1H-imidazo[4,5-b]pyridin-5-yl)-2-(3,5-difluorophenyl)ethyl)-2-((3bS,4aR)-3-(difluoromethyl)-5,5-difluoro-3b,4,4a,5-tetrahydro-1H-cyclopropa[3,4]cyclopenta[1,2-c]pyrazol-1-yl)acetamide] as the compound, how does the EC50 read?
**A.** 36.8 nM

**Q.** For Cn1nc(NS(C)(=O)=O)c2c(Cl)ccc(-c3cc4nc(C5CC5)oc4nc3[C@H](Cc3cc(F)cc(F)c3)NC(=O)Cn3nc(C(F)F)c4c3C(F)(F)[C@@H]3C[C@H]43)c21 [Example 110, N—((S)-1-(6-(4-chloro-1-methyl-3-(methylsulfonamido)-1H-indazol-7-yl)-2-cyclopropyloxazolo[5,4-b]pyridin-5-yl)-2-(3,5-difluorophenyl)ethyl)-2-((3bS,4aR)-3-(difluoromethyl)-5,5-difluoro-3b,4,4a,5-tetrahydro-1H-cyclopropa[3,4]cyclopenta[1,2-c]pyrazol-1-yl)acetamide], which EC50 is on record?
**A.** 11.9 nM

**Q.** CC1(O)CN(c2nc3cc(-c4ccc(F)c(C(N)=O)c4)c([C@H](Cc4cc(F)cc(F)c4)NC(=O)Cn4nc(C(F)(F)F)c5c4C(F)(F)[C@@H]4C[C@H]54)nc3o2)C1 [Example 111, 5-(5-((S)-1-(2-((3bS,4aR)-5,5-difluoro-3-(trifluoromethyl)-3b,4,4a,5-tetrahydro-1H-cyclopropa[3,4]cyclopenta[1,2-c]pyrazol-1-yl)acetamido)-2-(3,5-difluorophenyl)ethyl)-2-(3-hydroxy-3-methylazetidin-1-yl)oxazolo[5,4-b]pyridin-6-yl)-2-fluorobenzamide] was tested. Which EC50 did it give?
**A.** 156 nM

**Q.** How did the EC50 turn out when Cn1nc(NS(C)(=O)=O)c2c(Cl)ccc(-c3cc4sc(O)nc4nc3[C@H](Cc3cc(F)cc(F)c3)NC(=O)Cn3nc(C(F)F)c4c3C(F)(F)[C@@H]3C[C@H]43)c21 [Example 112, N—((S)-1-(6-(4-chloro-1-methyl-3-(methylsulfonamido)-1H-indazol-7-yl)-2-hydroxythiazolo[4,5-b]pyridin-5-yl)-2-(3,5-difluorophenyl)ethyl)-2-((3bS,4aR)-3-(difluoromethyl)-5,5-difluoro-3b,4,4a,5-tetrahydro-1H-cyclopropa[3,4]cyclopenta[1,2-c]pyrazol-1-yl)acetamide] was run?
**A.** 3.8 nM

**Q.** Cn1nc(NS(C)(=O)=O)c2cccc(-c3cc4sc(O)nc4nc3[C@H](Cc3cc(F)cc(F)c3)NC(=O)Cn3nc(C(F)(F)F)c4c3C(F)(F)[C@@H]3C[C@H]43)c21 [Example 113, 2-((3bS,4aR)-5,5-difluoro-3-(trifluoromethyl)-3b,4,4a,5-tetrahydro-1H-cyclopropa[3,4]cyclopenta[1,2-c]pyrazol-1-yl)-N—((S)-2-(3,5-difluorophenyl)-1-(2-hydroxy-6-(1-methyl-3-(methylsulfonamido)-1H-indazol-7-yl)thiazolo[4,5-b]pyridin-5-yl)ethyl)acetamide] was tested. Which EC50 did it give?
**A.** 8.1 nM

**Q.** With NC(=O)c1cc(-c2cc3nc(O)oc3nc2[C@H](Cc2cc(F)cc(F)c2)NC(=O)Cn2nc(C(F)(F)F)c3c2C(F)(F)[C@@H]2C[C@H]32)ccc1F [Example 114, 5-(5-((S)-1-(2-((3bS,4aR)-5,5-difluoro-3-(trifluoromethyl)-3b,4,4a,5-tetrahydro-1H-cyclopropa[3,4]cyclopenta[1,2-c]pyrazol-1-yl)acetamido)-2-(3,5-difluorophenyl)ethyl)-2-hydroxyoxazolo[5,4-b]pyridin-6-yl)-2-fluorobenzamide] as the compound, how does the EC50 read?
**A.** 589 nM
